Experimental data published in US20080045535A1, “Prokineticin 2 receptor antagonists” (priority 2005, published 2008).
Values joined by “and” are separate entries in the source; they are usually repeats but may differ in a detail not shown here. Identical values can stand only once.

Target: T1, HEK 293 GPR73 (prokineticin 1 receptor) expressing cells (Homo sapiens, UniProt Q8TCW9)
T1 construct: expressed in transfected cells; host or cells: HEK 293
Assay: PK1 functional assay: screening for PK1 antagonists on the FLIPR (calcium fluorescence)
Format: cell-based
Details: HEK 293 GPR73 cells; for inhibition at 10 µM: HEK293, compound at 10 μM, read-out: Ca^2+ Mobilization % Inh @10 μM; for inhibition at 10 µM / Ca^2+ Mobilization % Inh @10 μM: multiple values = repeat tests; for IC50: PK1 ligand at EC50, multiple values = repeat tests, read-out: Ca^2+ Mobilization IC50; for Ca^2+ Mobilization % Inh @10 μM: compound at 10 μM
Method: At a time of 24 h prior to running the assay, in cell culture media (DMEM containing high Glucose and L-glutamine, 10% FBS, 1% Pen/Streptomycin, 1% Sodium Pyruvate, 20 mM HEPES, Zeocin 200 mg/L), 100 μL of 1.3*10^6/ml HEK 293 GPR73 (prokineticin 1 receptor) expressing cells were plated in a 96 well poly-d-lysine coated plate (Costar), and incubated at 37 C and 5% CO2. On the day in which the assay was run, the media was removed and 200 μL of 5× Calcium Plus Dye (Molecular Devices) which was previously resuspended with 200 mL of assay buffer [HBSS w/Ca^2+ and Mg^2+ w/o phenol red, 20 mM HEPES, 0.1% BSA, 10 mL probenecid (710 mg probenecid in 5 mL of 1N NaOH, to which was then added 5 mL HBSS containing 20 mM HEPES)] was added to each well of the 96-well plate. The plate was incubated at 37 C and 5% CO2 for 30 min in dark. The plate was removed and allowed to reach RT for 15 min in the dark. The assay was then run on the FLIPR. […] Baseline is described as the amount of relative fluorescence read when buffer alone is added to cells. Baseline was subtracted from all wells. Percent of control was calculated as follows:
(Baseline subtracted well value is divided by baseline subtracted max value)*100.
Percent inhibition is 100 minus the percent of control value.
IC50 values were calculated using GraphPad Prism.
Table 2 includes data generated from the PK1 functional assay described in Example 2.

T1 sequence (Q8TCW9 whole entry): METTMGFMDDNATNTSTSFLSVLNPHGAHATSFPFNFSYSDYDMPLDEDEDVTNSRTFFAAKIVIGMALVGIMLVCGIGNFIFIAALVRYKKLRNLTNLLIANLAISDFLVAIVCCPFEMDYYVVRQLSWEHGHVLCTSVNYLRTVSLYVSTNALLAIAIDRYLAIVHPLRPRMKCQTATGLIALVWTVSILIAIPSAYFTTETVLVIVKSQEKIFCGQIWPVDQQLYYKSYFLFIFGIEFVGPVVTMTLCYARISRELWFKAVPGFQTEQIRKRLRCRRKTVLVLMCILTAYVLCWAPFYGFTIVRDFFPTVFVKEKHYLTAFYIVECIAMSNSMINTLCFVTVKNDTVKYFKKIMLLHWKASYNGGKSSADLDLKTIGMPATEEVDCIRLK

COc1ccc(Cn2c(N[C@@H]3CCCC[C@H]3NC(=N)N)nc(=O)n(Cc3ccc(Cl)cc3)c2=O)cc1 [Cpd 56]
inhibition at 10 µM: 98%
IC50: 61 nM

N=C(N)NCCNc1nc(=O)n(Cc2ccc(Cl)c(Cl)c2)c(=O)n1Cc1cccc(OC(F)F)c1 [Cpd 57]
inhibition at 10 µM: 51%
IC50: 8210 nM

COc1ccc(Cn2c(NCCN(C(=N)N)C(C)C)nc(=O)n(Cc3ccc(Cl)c(Cl)c3)c2=O)cc1 [Cpd 58, N-{2-[5-(3,4-Dichloro-benzyl)-1-(4-methoxy-benzyl)-4,6-dioxo-1,4,5,6-tetrahydro-[1,3,5]triazin-2-ylamino]-ethyl}-N-isopropyl-guanidine]
IC50: 16 nM
Ca^2+ Mobilization % Inh @10 μM (10 µM): 102% and 99% and 98%

CCN(CCNc1nc(=O)n(Cc2ccc(Cl)c(Cl)c2)c(=O)n1Cc1ccc(OC)cc1)C(=N)N [Cpd 59]
inhibition at 10 µM: 99%
IC50: 50 nM and 35 nM
Ca^2+ Mobilization % Inh @10 μM (10 µM): 100%

COc1ccc(Cn2c(NCCN3CCNC3=N)nc(=O)n(Cc3ccc(Cl)c(Cl)c3)c2=O)cc1 [Cpd 60, 3-(3,4-Dichloro-benzyl)-6-[2-(2-imino-imidazolidin-1-yl)-ethylamino]-1-(4-methoxy-benzyl)-1H-[1,3,5]triazine-2,4-dione]
inhibition at 10 µM: 100%
IC50: 54 nM

CCCCNC(=N)NCCNc1nc(=O)n(Cc2ccc(Cl)c(Cl)c2)c(=O)n1Cc1ccc(OC)cc1 [Cpd 61]
inhibition at 10 µM: 102%
IC50: 45 nM

COc1ccc(Cn2c(NCCNC(=N)NC3CCCCC3)nc(=O)n(Cc3ccc(Cl)c(Cl)c3)c2=O)cc1 [Cpd 62]
inhibition at 10 µM: 98%
IC50: 59 nM

COc1ccc(Cn2c(NCCNC(=N)NCc3ccccc3)nc(=O)n(Cc3ccc(Cl)c(Cl)c3)c2=O)cc1 [Cpd 63]
inhibition at 10 µM: 101%
IC50: 120 nM

COc1ccc(Cn2c(NCCNC(=N)NCC3CCCO3)nc(=O)n(Cc3ccc(Cl)c(Cl)c3)c2=O)cc1 (stereo not shown) [Cpd 64]
inhibition at 10 µM: 100%
IC50: 72 nM

COc1ccc(Cn2c(NCCNC(=N)NCCc3ccccc3)nc(=O)n(Cc3ccc(Cl)c(Cl)c3)c2=O)cc1 [Cpd 65]
IC50: 485 nM
Ca^2+ Mobilization % Inh @10 μM: 88%

COc1ccc(Cn2c(NCCNC(=N)NCc3ccco3)nc(=O)n(Cc3ccc(Cl)c(Cl)c3)c2=O)cc1 [Cpd 66]
inhibition at 10 µM: 99%
IC50: 23 nM

COCCNC(=N)NCCNc1nc(=O)n(Cc2ccc(Cl)c(Cl)c2)c(=O)n1Cc1ccc(OC)cc1 [Cpd 67]
inhibition at 10 µM: 99%
IC50: 18 nM

COc1ccc(Cn2c(NCCCNC(=N)N)nc(=O)n(Cc3ccc(Cl)c(Cl)c3)c2=O)cc1 [Cpd 68]
inhibition at 10 µM: 84%
IC50: 1210 nM

C=CCNC(=N)NCCNc1nc(=O)n(Cc2ccc(Cl)c(Cl)c2)c(=O)n1Cc1ccc(OC)cc1 [Cpd 70]
inhibition at 10 µM: 101%
IC50: 9 nM and 7 nM
Ca^2+ Mobilization % Inh @10 μM: 101, 101%

COc1ccc(Cn2c(NCCNC(=N)Nc3ccccc3)nc(=O)n(Cc3ccc(Cl)c(Cl)c3)c2=O)cc1 [Cpd 71]
inhibition at 10 µM: 100%
IC50: 12 nM and 7 nM
Ca^2+ Mobilization % Inh @10 μM (10 µM): 99%

COc1ccc(Cn2c(NCCNC(=N)Nc3ccc(OC)cc3)nc(=O)n(Cc3ccc(Cl)c(Cl)c3)c2=O)cc1 [Cpd 72]
inhibition at 10 µM: 100%
IC50: 64 nM

COc1ccc(Cn2c(NCCNC(=N)Nc3ccc(Cl)cc3)nc(=O)n(Cc3ccc(Cl)c(Cl)c3)c2=O)cc1 [Cpd 73]
inhibition at 10 µM: 100%
IC50: 39 nM

COc1ccc(Cn2c(NCCNC(=N)Nc3ccc(C(F)(F)F)cc3)nc(=O)n(Cc3ccc(Cl)c(Cl)c3)c2=O)cc1 [Cpd 74]
inhibition at 10 µM: 100%
IC50: 138 nM

COc1ccc(Cn2c(NCCNC(=N)Nc3cccnc3)nc(=O)n(Cc3ccc(Cl)c(Cl)c3)c2=O)cc1 [Cpd 75]
inhibition at 10 µM: 101%
IC50: 36 nM

COc1ccc(Cn2c(NCCNC(=N)Nc3ccc(C(C)=O)cc3)nc(=O)n(Cc3ccc(Cl)c(Cl)c3)c2=O)cc1 [Cpd 76]
inhibition at 10 µM: 93%
IC50: 230 nM

COc1ccc(Cn2c(NCCNC(=N)N)nc(=O)n(Cc3ccoc3)c2=O)cc1 [Cpd 77]
inhibition at 10 µM: 81%
IC50: 789 nM

COc1ccc(Cn2c(NCCNC(=N)N)nc(=O)n(Cc3cccs3)c2=O)cc1 [Cpd 78]
inhibition at 10 µM: 89%
IC50: 300 nM

COc1ccc(Cn2c(NCCNC(=N)N)nc(=O)n(C(C)c3ccc(OC)cc3)c2=O)cc1 (stereo not shown) [Cpd 79]
inhibition at 10 µM: 101%
IC50: 71 nM

COc1ccc(Cn2c(NCCNC(=N)N)nc(=O)n(Cc3ccc(OC(F)F)cc3)c2=O)cc1 [Cpd 80]
inhibition at 10 µM: 100%
IC50: 71 nM

COc1ccc(Cn2c(NCCNC(=N)N)cc(=O)n(Cc3ccccc3)c2=O)cc1 [Cpd 81, N-{2-[1-Benzyl-3-(4-methoxy-benzyl)-2,6-dioxo-1,2,3,6-tetrahydro-pyrimidin-4-ylamino]-ethyl}-guanidine]
inhibition at 10 µM: 84%
IC50: 452 nM

C=CCC(c1ccc(OC)cc1)n1c(=O)nc(NCCNC(=N)N)n(Cc2ccc(OC)cc2)c1=O (stereo not shown) [Cpd 82]
inhibition at 10 µM: 84%
IC50: 498 nM

C=CCC(c1ccc(Cl)cc1)n1c(=O)nc(NCCNC(=N)N)n(Cc2ccc(OC)cc2)c1=O (stereo not shown) [Cpd 83]
inhibition at 10 µM: 80%
IC50: 988 nM

COc1ccc(Cn2c(NCCNC(=N)N)cc(=O)n(Cc3ccc(OC)cc3)c2=O)cc1 [Cpd 84, N-{2-[1,3-Bis-(4-methoxy-benzyl)-2,6-dioxo-1,2,3,6-tetrahydro-pyrimidin-4-ylamino]-ethyl}-guanidine]
inhibition at 10 µM: 99%
IC50: 42 nM

COc1ccc(Cn2c(=O)nc(NCCNC(=N)N)n(Cc3ccc(OC)nc3)c2=O)cc1 [Cpd 85]
inhibition at 10 µM: 96%
IC50: 51 nM

COc1ccc(Cn2c(=O)nc(NCCNC(=N)N)n(CC3CCC(OC)CC3)c2=O)cc1 (stereo not shown) [Cpd 86]
inhibition at 10 µM: 61%
IC50: 3260 nM

N=C(N)NCCNc1nc(=O)n(Cc2ccc(F)cc2)c(=O)n1Cc1ccc([N+](=O)[O-])cc1 [Cpd 87]
inhibition at 10 µM: 38%
IC50: > 10000 nM

COc1ccc(Cn2c(NCCNC(=N)NCCN3CCOCC3)nc(=O)n(Cc3ccc(F)cc3)c2=O)cc1 [Cpd 88]
inhibition at 10 µM: 59%
IC50: 4740 nM

COc1ccc(Cn2c(NCCNC(=N)NCCCN3CCOCC3)nc(=O)n(Cc3ccc(F)cc3)c2=O)cc1 [Cpd 89]
inhibition at 10 µM: 46%
IC50: 9070 nM

COc1ccc(Cn2c(NCCN(C(=N)N)c3ccc(C#N)cc3)nc(=O)n(Cc3ccc(F)cc3)c2=O)cc1 [Cpd 90, N-(4-Cyano-phenyl)-N-{2-[5-(4-fluoro-benzyl)-1-(4-methoxy-benzyl)-4,6-dioxo-1,4,5,6-tetrahydro-[1,3,5]triazin-2-ylamino]-ethyl}-guanidine]
IC50: 31 nM and 43 nM
Ca^2+ Mobilization % Inh @10 μM (10 µM): 100% and 101%

COc1ccc(Cn2c(NCCNC(=N)Nc3ccc([N+](=O)[O-])cc3)nc(=O)n(Cc3ccc(F)cc3)c2=O)cc1 [Cpd 91]
inhibition at 10 µM: 101%
IC50: 54 nM

COc1ccc(Cn2c(NCCNC(=N)Nc3ccc4c(c3)OCO4)nc(=O)n(Cc3ccc(F)cc3)c2=O)cc1 [Cpd 92]
inhibition at 10 µM: 97%
IC50: 40 nM

COc1ccc(Cn2c(NCCNC(=N)NN)nc(=O)n(Cc3ccc(F)cc3)c2=O)cc1 [Cpd 93, N-{2-[5-(4-Fluoro-benzyl)-1-(4-methoxy-benzyl)-4,6-dioxo-1,4,5,6-tetrahydro-[1,3,5]triazin-2-ylamino]-ethyl}-AN-amino-guanidine]
inhibition at 10 µM: 92%
IC50: 227 nM

COc1ccc(Cn2c(NCCNC(=N)N)nc(=O)n(Cc3cccc([N+](=O)[O-])c3)c2=O)cc1 [Cpd 94]
inhibition at 10 µM: 60%
IC50: 4800 nM

COc1ccc(Cn2c(NCCNC(=N)N)nc(=O)n(Cc3ccc([N+](=O)[O-])cc3)c2=O)cc1 [Cpd 95, N-{2-[1-(4-Methoxy-benzyl)-5-(4-nitro-benzyl)-4,6-dioxo-1,4,5,6-tetrahydro-[1,3,5]triazin-2-ylamino]-ethyl}-guanidine]
inhibition at 10 µM: 96%
IC50: 84 nM

COc1ccc(Cn2c(NCCNC(=N)N)nc(=O)n(Cc3cccc(N)c3)c2=O)cc1 [Cpd 96]
inhibition at 10 µM: 43%
IC50: > 10000 nM

COc1ccc(Cn2c(NCCNC(=N)N)nc(=O)n(Cc3ccc(C#N)cc3)c2=O)cc1 [Cpd 97]
inhibition at 10 µM: 86%
IC50: 318 nM

COc1ccc(Cn2c(NCCNC(=N)N)nc(=O)n(Cc3cccc(C#N)c3)c2=O)cc1 [Cpd 98]
inhibition at 10 µM: 34%
IC50: > 10000 nM

[H]/N=C(\N)NCCNc1nc(=O)n(Cc2ccc(C(=O)OC)cc2)c(=O)n1Cc1ccc(OC)cc1 [Cpd 99]
inhibition at 10 µM: 73%
IC50: 794 nM

COC(=O)c1cccc(Cn2c(=O)nc(NCCNC(=N)N)n(Cc3ccc(OC)cc3)c2=O)c1 [Cpd 100]
inhibition at 10 µM: 48%
IC50: 8820 nM
